These results are taken from US20050256051A1, “Nuclear receptor-mediated introduction of a PNA into cell nuclei” (The Population Council, Inc., priority 2001, published 2005).

A short description of series [1]: Solubility of PNA constructs in culture medium and stock solution. Format: physicochemical. As to conditions: cell culture medium (RPMI complete medium); higher concentrations precipitate; read-out: maximum solubility in RPMI complete medium. The protocol: Table 1 contains a description of the experimental PNAs used in this study, including their modifications and corresponding abbreviations. In particular, PNA-mycwt is a 17-mer PNA anti-gene for the unique sequence of c-myc, bases 4528-4544, in its II exon (21). […] All the other PNAs listed in Table 1 had solubilities in excess of 500 μM (stock solution described above), far above the 10 μM concentration used in most experiments.

The test system of series [2] is c-myc gene. Nature of the series: MYC protein by Western blot normalized to H2b, LNCaP cells. Format: cell-based, human. As to conditions: for change in MYC: 2 μM, preliminary experiments. The protocol: (§1) Total cellular proteins samples were derived from 10^7 cells solubilized in 200 μl Urea lysis buffer (9M Urea, 50 mM Tris, pH 7.0) with brief sonication at 0° C. as needed. Western blot analysis for MYC expression was performed as described previously (29). Briefly, total cellular proteins were electrophoretically separated using 10% acrylamide, 0.4% (w/v) SDS gels and then transferred to a nitrocellulose membrane (Hybond C-extra, Amersham). The membrane was then cut at a […] molecular weight level (using as reference Kaleidoscope pre-stained standards, BioRad). Both membrane halves were incubated in parallel overnight with a primary antibody (top with anti-myc antibody, 9E10 Calbiochem, San Diego, Calif.; bottom with anti-H2b antibody kindly provided by Dr. M. Romani, IST, Genova, I). The membranes were washed and exposed to a rabbit anti-mouse IgG (Dakopatts, Glostrup, DK) at room temperature for 1 h. MYC and H2b bands were visualized by the incubation of the membrane with alkaline phosphatase-conjugated goat anti-rabbit IgG (Sigma) at room temperature for 2 h followed by exposure to the 5-bromo-4-chloro-3-indolylphosphate/nitro blue tetrazolium substrate developer (BCIP/NBT, Sigma).
(§2) The stained and reassembled Western blot images, from triplicate experiments, were digitally acquired, elaborated in Photoshop, and then quantified using Scion-Image. MYC concentrations were normalized to the matching histone H2b concentrations (a protein that remains constant throughout the treatment described). Therefore MYC concentration is reported as a ratio to an H2b standard. For Western blot analyses, the average error was 14.0% (range 8.3 to 25.1%) in the LNCaP experiments and for those with DU145 averaged 10.2% (range 8.5 to 20.3%).
As shown in Fugure 4A, the amount of MYC protein was evaluated by Western blot analysis of […]. The effects of PNAs on expression of the c-myc gene in LNCaP and DU145 cells were also obtained by immunochemical measurement of the MYC protein content of cell lysates, using data obtained from at least a triplicate run of each set of immunostained Western blots. In each case, the MYC content of the whole cell lysate was compared to that of histone H2b, a protein that remains constant throughout the treatment described. The constancy of H2b made it possible to represent variations in MYC protein concentration normalized to the H2b content in the same lysate.
Background: A western blot detects proteins with antibodies after separation by electrophoresis.

Series [3] deals with DU145 cells. Nature of the series: Cell viability by Trypan blue exclusion, DU145 cells. Format: cell-based, human. As to conditions: 10 μM, up to 72 h, compared with the about 20% decline seen in LNCaP. Here is the method:
(§3) Two prostatic carcinoma derived cell lines were used (LNCaP and DU145 cultured in RPMI-1640, 10% charcoal-stripped fetal calf serum). Their features and culture conditions were as previously detailed (26, 27). PNA stock solutions (500 μM in H2O neutralized with NaOH) were added as an aliquot to the culture medium to their final concentration. […] In the gene regulation experiments, PNAmycwt, PNAmycwt-T, PNAmycmut-T, and PNAmycwt-NLS were present at a final 10 μM concentration in the culture medium, for 0, 24, 48, or 72 hours. Cell growth was measured by total cell counts from three replicate flasks (1.3-5.0×10^6 per each 75 cm^2/flask) while cell viability was determined by Trypan blue exclusion. The standard deviation was calculated both for cell growth and viability keeping into account the data from all the experiments (minimum of three each).
(§4) LNCaP and DU145 cells were treated with a 10 μM concentration of PNA constructs in the culture medium (PNA-mycwt-T (Δ), PNA-mycwt, PNA-mycmut, PNA-mycmut-T (●) as negative controls and PNA-mycwt-NLS (▪) as positive control). Cell numbers (FIGS. 3A and C) and viability (FIGS. 3B and D) were estimated, as described above, at increasing times of exposure to different PNA constructs.

In series [4] the test system is DU145 cells. In words: Cell growth by total cell counts, DU145 cells. Format: cell-based, human. As to conditions: 10 μM, 72 h. Here is the method: as §3, §4
For series [5], the system named is LNCaP cells. In words: Cell viability by Trypan blue exclusion, LNCaP cells. The protocol: as §3, §4
In series [6] the test system is LNCaP cells. In words: Cell growth by total cell counts, LNCaP cells. Format: cell-based, human. As to conditions: 10 μM, 72 hours. The protocol:
as §3, §4

In series [7] the test system is c-myc gene. In words: MYC protein by Western blot normalized to H2b, DU145 cells. The series is classed as cell-based, human. To be noted: 10 μM. The protocol:
as §1, §2
As shown in Fugure 4A, the amount of MYC protein was evaluated by Western blot analysis of total nuclear proteins. […]

The test system of a further series is Burkitt's lymphoma cells. As to conditions: 10 μM in the cell medium; cited from earlier work.

As usually defined, the solubility is the dissolved amount per volume that the medium holds. Take `CCN(CC)c1ccc2c(-c3ccccc3C(=O)NCCCC[C@H](NC(=O)COCCOCCNC(=O)CN(CCNC(=O)CN(CCNC(=O)CN(CCNC(=O)CN(CCNC(=O)CN(CCNC(=O)CN(CCNC(=O)CN(CCNC(=O)CN(CCNC(=O)CN(CCNC(=O)CN(CCNC(=O)CN(CCNC(=O)CN(CCNC(=O)CN(CCNC(=O)CN(CCNC(=O)CN(CCNC(=O)CN(CCNC(=O)CN(CCN)C(=O)Cn3cc(C)c(=O)[nH]c3=O)C(=O)Cn3ccc(N)nc3=O)C(=O)Cn3cnc4c(N)ncnc43)C(=O)Cn3cnc4c(N)ncnc43)C(=O)Cn3ccc(N)nc3=O)C(=O)Cn3cnc4c(=O)[nH]c(N)nc43)C(=O)Cn3cc(C)c(=O)[nH]c3=O)C(=O)Cn3cc(C)c(=O)[nH]c3=O)C(=O)Cn3cnc4c(N)ncnc43)C(=O)Cn3cnc4c(=O)[nH]c(N)nc43)C(=O)Cn3ccc(N)nc3=O)C(=O)Cn3cc(C)c(=O)[nH]c3=O)C(=O)Cn3cc(C)c(=O)[nH]c3=O)C(=O)Cn3ccc(N)nc3=O)C(=O)Cn3cnc4c(N)ncnc43)C(=O)Cn3ccc(N)nc3=O)C(=O)Cn3ccc(N)nc3=O)C(=O)NCC(N)=O)c3ccc(=[N+](CC)CC)cc-3oc2c1` [PNA-mycwt-R]: in series [1], the solubility was found to be 2 µM.
With `CCN(CC)c1ccc2c(-c3ccccc3C(=O)NCCCC[C@H](NC(=O)COCCOCCNC(=O)CN(CCNC(=O)CN(CCNC(=O)CN(CCNC(=O)CN(CCNC(=O)CN(CCNC(=O)CN(CCNC(=O)CN(CCNC(=O)CN(CCNC(=O)CN(CCNC(=O)CN(CCNC(=O)CN(CCNC(=O)CN(CCNC(=O)CN(CCNC(=O)CN(CCNC(=O)CN(CCNC(=O)CN(CCNC(=O)CN(CCNC(=O)COCCOCCNC(=O)CCC(=O)O[C@H]3CC[C@H]4[C@@H]5CC[C@H]6CC(=O)CC[C@]6(C)[C@H]5CC[C@]34C)C(=O)Cn3cc(C)c(=O)[nH]c3=O)C(=O)Cn3ccc(N)nc3=O)C(=O)Cn3cnc4c(N)ncnc43)C(=O)Cn3cnc4c(N)ncnc43)C(=O)Cn3ccc(N)nc3=O)C(=O)Cn3cnc4c(=O)[nH]c(N)nc43)C(=O)Cn3cc(C)c(=O)[nH]c3=O)C(=O)Cn3cc(C)c(=O)[nH]c3=O)C(=O)Cn3cnc4c(N)ncnc43)C(=O)Cn3cnc4c(=O)[nH]c(N)nc43)C(=O)Cn3ccc(N)nc3=O)C(=O)Cn3cc(C)c(=O)[nH]c3=O)C(=O)Cn3cc(C)c(=O)[nH]c3=O)C(=O)Cn3ccc(N)nc3=O)C(=O)Cn3cnc4c(N)ncnc43)C(=O)Cn3ccc(N)nc3=O)C(=O)Cn3ccc(N)nc3=O)C(=O)NCC(N)=O)c3ccc(=[N+](CC)CC)cc-3oc2c1` [PNA-mycwt-TR], in series [1], the solubility worked out at 2 µM. Moreover, the “change in MYC” value in the series on c-myc gene [2] (24 hours) was −20%; with c-myc gene [2] (48 h), −30%; with c-myc gene [2] (72 h), −30%.
Turning to “PNA-mycwt-NLS: c-myc anti-gene PNA (SEQ ID NO:1) linked to SV40 Nuclear Localization Signal peptide PKKKRKV; positive control (TCAACGTTAGCTTCACC; all peptide nucleic acid (PNA); further chemistry not fully specified) [reference compound]”, the “effect on cell viability” value with DU145 cells [3] is “same magnitude and timing”. In addition, in the series with DU145 cells [4], the “inhibition of cell growth” value is recorded as 36%. Besides, the “decline in cell viability” value with LNCaP cells [5] (10 µM) was “about 20%”. Besides, in the series on LNCaP cells [6], the cell growth is recorded as 34 % of control. Further, in the series with c-myc gene [2] (10 μM, 72 h, linear decrease), the “decrease in MYC content” value stood at 52%. Also, the “inhibition of MYC” value with c-myc gene [7] (72 hours, linear inhibition) is recorded as “about 65%”. In the series on Burkitt's lymphoma cells, the cell viability entry is “small decrease” and the “inhibition of MYC expression” value is “maximum inhibition”.
Consider “PNA-mycwt-T: c-myc anti-gene PNA (SEQ ID NO:1) linked to dihydrotestosterone at N-terminal (TCAACGTTAGCTTCACC; all peptide nucleic acid (PNA); dihydrotestosterone conjugated at PNA N-terminus)”, for which the “decline in cell viability” value in the series on LNCaP cells [5] (LNCaP cells, 10 μM, 72 h) is recorded as “about 20%”. Besides, in the series with LNCaP cells [6], the cell growth was 34 % of control. The “effect on MYC protein / expression” value was “significant and persistent decrease” in the series with c-myc gene [2] (10 μM); “unaltered” in the series on c-myc gene [7]. Moreover, the “change in MYC content” value is reported as −63% in the series on c-myc gene [2] (10 μM, 24 h); −50% in the series on c-myc gene [2] (10 μM, 48 hours); −42% with c-myc gene [2] (10 μM, 72 hours).
Regarding “PNA-mycwt: 17-mer c-myc anti-gene PNA, TCA ACG TTA GCT TCA CC (SEQ ID NO:1), vector-free (TCAACGTTAGCTTCACC; all peptide nucleic acid (PNA); further chemistry not fully specified)”, the “effect on MYC protein / expression” value was “unchanged” with c-myc gene [2] (10 μM) and “unaltered” in the series with c-myc gene [7].
